Measured values from patent publication US20190134004A1, “METHODS AND COMPOSITIONS FOR TREATING BREAST AND PROSTATE CANCER” (The University of Chicago, priority 2016, published 2019).
Entries after “also recorded” stand apart in the source; their conditions may differ.

What was measured:
[1] = system: LNCaP-EnzaR cells; experiment: Cell viability of LNCaP-EnzaR cells treated with R1881, enzalutamide, Dex with or without JQ1; type: cell-based, human; conditions: 3 days
Method: FIG. 3. […] LNCaP-EnzR cells were treated for three days of R1881 and enzalutamide (RE), concurrently with vehicle, Dex (D) or D+JQ1. Error bars=standard error of mean. The bars, from left to right, correspond to RE, RED, and RED-JQ 1.
BET-inhibition decreases Enza-R survival in vitro despite dexamethasone. It has been reported that the BET inhibitor JQ1 (100-500 nM) can decrease Enza-R cell survival, potentially through inhibition of ligand independent AR splice variants.

[2] = system: GR binding sites; experiment: GR ChIP-seq in LAPC4 cells after addition of dexamethasone; type: cell-based, human
Excerpt: The inventors recently discovered that within PC cells, activated GR can compensate transcriptionally for a large set of genes. […] In a companion experiment using chromatin immunoprecipitation followed by deep sequeicing (ChIP-seq) in LAPC4 cells, the addition of dexamethasone to activate the GR leads to ˜700 new unique GR binding sites, approximately 70 of these new sites are within 5 kilobase (kb) of the transctiption start site of known genes. This argues that the majority of GR chromatin binding and subsequent gene regulation is through regulation at more distant enhancer sites rather then through direct promoter site binding. As bromodomain proteins such as BRD4 cooperate with known transcription factors, including the GR, at such enhancers to enable gene regulation, the inventors sought to establish whether BRD4 and GR cooperate to regulate pro-survival genes in Enza-R CRPC.

[3] = system: GR (NR3C1) target gene expression; experiment: Dex-mediated GR target gene expression (KLK3, SGK1, FKBP5) with BET inhibition in LNCaP-EnzR cells; type: cell-based, human; conditions: three days R1881 and enzalutamide, then Dex or Dex+JQ1, relative to RE, p<0.05
Method: FIG. 2. Dex-mediated GR (NR3C1) target gene expression decreased with BETinhibition. LNCaP-EnzR cells were treated for three days of R1881 and enzalutamide (RE), after which cells stimulated with Dex (D) or Dex+JQ1. All conditions relative to RE. Changes all significant p<0.05 with no change in GR expression across conditions. Each series of bars from left to right corresponds to data from RE, RED, and RED-JQl.
The inventors have also verified that the principal BET-BRD proteins inhibited by a BET inhibitor (ABT-075), BRD4 and BRD3 are expressed within the Enza-R CRPC cell lines. […] It was next sought to explore whether for specific, known GR-regulated in PC cells genes (KLK3, SGK1, FKBPS) the BET inhibitor tool compound JQ1 was able to decrease GR mediated gene expression.

[4] = system: Enza-R cells; conditions: JQ1 100-500 nM; reported; cited from earlier work

| Structure (SMILES) | viable cell numbers ([1]; dexamethasone 100 nM with R1881 1 nM and enzalutamide 10 μM) | new unique GR binding sites [2] | GR mediated gene expression (KLK3, SGK1, FKBPS) [3] | Enza-R cell survival [4] | viable cell numbers (Dex-mediated cell viability) ([1]; JQ1 500 nM with dexamethasone 100 nM, R1881 1 nM, enzalutamide 10 μM) |
| --- | --- | --- | --- | --- | --- |
| C[C@@H]1C[C@H]2[C@@H]3CCC4=CC(=O)C=C[C@]4(C)[C@@]3(F)[C@@H](O)C[C@]2(C)[C@@]1(O)C(=O)CO [Dex, dexamethasone] | increases | ~700 | – | – | – |
| Cc1sc2c(c1C)C(c1ccc(Cl)cc1)=N[C@@H](CC(=O)OC(C)(C)C)c1nnc(C)n1-2 [JQ1] | – | – | significantly countered; also recorded: decreased | can decrease | significantly decreased |
